# Laboratory results as given in ChEMBL document CHEMBL1126411, “Synthesis and HIV activity of phosphonate isosteres of D4T monophosphate” (Bioorg Med Chem Lett, 1992).
# Tested on: MT4
# Assay: Concentration required for the inhibition of HIV replication by 50% in MT-4 cells
# Assay type: functional, cell-based
# Conditions: Homo sapiens
row,Compound,IC50 [µM]
1,Cc1cn([C@H]2C=C[C@@H](CCP(=O)(O)O)O2)c(=O)[nH]c1=O,> 1000
2,Cc1cn([C@H]2C=C[C@@H](OCP(=O)(O)O)O2)c(=O)[nH]c1=O,1.3
3,Cc1cn([C@H]2C=C[C@@H](OCP(=O)(O)O)C2)c(=O)[nH]c1=O,> 1000
4,Cc1cn([C@H]2C=C[C@@H](CO)O2)c(=O)[nH]c1=O [STAVUDINE],1.2
